# According to ChEMBL document CHEMBL5723583, “Data for DCP probe BAY-9835” (2024):
# pIC50: −log10 of the molar value. The source made the active and inactive calls. No cut-off for these calls is given here.
# Tests used:
# [1] = target: Prostaglandin G/H synthase 2 (Homo sapiens) (UniProt P35354); experiment: Inhibition of Cyclooxygenase COX-2 at 10.0 µM in the Eurofins-Panlabs selectivity screen; settings: Compound concentration 10.0 uM
# [2] = target: Monoamine oxidase B (MAO-B) (Homo sapiens, UniProt P27338); experiment: Inhibition of Monoamine Oxidase MAO-B at 10.0 µM in the Eurofins-Panlabs selectivity screen; settings: compound concentration 10 uM
# [3] = target: Muscarinic acetylcholine receptor M2 (Homo sapiens) (UniProt P08172); experiment: Inhibition of Muscarinic M2 at 10.0 µM in the Eurofins-Panlabs selectivity screen; settings: Compound concentration 10.0 uM
# [4] = target: Motilin receptor (Homo sapiens) (UniProt O43193); experiment: Inhibition of Motilin at 10.0 µM in the Eurofins-Panlabs selectivity screen; settings: Compound concentration 10.0 uM
# Chain of Motilin receptor (Homo sapiens) (O43193 whole entry): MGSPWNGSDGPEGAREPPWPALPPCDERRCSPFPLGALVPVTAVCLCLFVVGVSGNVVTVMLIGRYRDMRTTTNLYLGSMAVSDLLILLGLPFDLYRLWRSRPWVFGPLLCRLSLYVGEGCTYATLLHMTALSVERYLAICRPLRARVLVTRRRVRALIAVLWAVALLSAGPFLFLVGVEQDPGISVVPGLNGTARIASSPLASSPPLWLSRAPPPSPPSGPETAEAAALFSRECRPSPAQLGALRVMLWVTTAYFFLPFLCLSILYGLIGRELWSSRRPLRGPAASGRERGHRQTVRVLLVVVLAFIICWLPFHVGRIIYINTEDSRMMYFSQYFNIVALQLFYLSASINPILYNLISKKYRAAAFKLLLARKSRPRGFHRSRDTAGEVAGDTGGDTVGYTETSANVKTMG
# [5] = target: Alpha-2B adrenergic receptor (Homo sapiens) (UniProt P18089); experiment: Inhibition of Adrenergic alpha2B at 10.0 µM in the Eurofins-Panlabs selectivity screen; settings: Compound concentration 10.0 uM
# [6] = target: Sodium-dependent serotonin transporter (Homo sapiens) (UniProt P31645); experiment: Inhibition of Transporter, Serotonin (5-Hydroxytryptamine) (SERT) at 10.0 µM in the Eurofins-Panlabs selectivity screen; settings: Compound concentration 10.0 uM
# [7] = target: Cathepsin S (Homo sapiens, UniProt P25774); experiment: IC50 of Cathepsin S at 1.0 µM in the Bayer in-house protease panel
# Chain of Cathepsin S (P25774 whole entry): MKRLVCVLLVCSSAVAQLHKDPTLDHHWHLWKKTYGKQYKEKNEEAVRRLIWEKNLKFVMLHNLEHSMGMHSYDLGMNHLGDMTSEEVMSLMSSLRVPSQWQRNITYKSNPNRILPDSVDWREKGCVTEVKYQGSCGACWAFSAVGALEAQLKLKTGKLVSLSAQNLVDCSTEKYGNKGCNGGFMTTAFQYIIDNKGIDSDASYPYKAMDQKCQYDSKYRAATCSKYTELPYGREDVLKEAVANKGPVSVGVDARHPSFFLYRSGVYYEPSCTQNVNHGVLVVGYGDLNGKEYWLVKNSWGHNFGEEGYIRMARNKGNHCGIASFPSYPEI
# [8] = target: A disintegrin and metalloproteinase with thrombospondin motifs 5 (Homo sapiens, UniProt Q9UNA0); experiment: IC50 of hADAMTS5 at 1.0 µM in the Bayer in-house protease panel
# Chain of A disintegrin and metalloproteinase with thrombospondin motifs 5 (Q9UNA0 whole entry): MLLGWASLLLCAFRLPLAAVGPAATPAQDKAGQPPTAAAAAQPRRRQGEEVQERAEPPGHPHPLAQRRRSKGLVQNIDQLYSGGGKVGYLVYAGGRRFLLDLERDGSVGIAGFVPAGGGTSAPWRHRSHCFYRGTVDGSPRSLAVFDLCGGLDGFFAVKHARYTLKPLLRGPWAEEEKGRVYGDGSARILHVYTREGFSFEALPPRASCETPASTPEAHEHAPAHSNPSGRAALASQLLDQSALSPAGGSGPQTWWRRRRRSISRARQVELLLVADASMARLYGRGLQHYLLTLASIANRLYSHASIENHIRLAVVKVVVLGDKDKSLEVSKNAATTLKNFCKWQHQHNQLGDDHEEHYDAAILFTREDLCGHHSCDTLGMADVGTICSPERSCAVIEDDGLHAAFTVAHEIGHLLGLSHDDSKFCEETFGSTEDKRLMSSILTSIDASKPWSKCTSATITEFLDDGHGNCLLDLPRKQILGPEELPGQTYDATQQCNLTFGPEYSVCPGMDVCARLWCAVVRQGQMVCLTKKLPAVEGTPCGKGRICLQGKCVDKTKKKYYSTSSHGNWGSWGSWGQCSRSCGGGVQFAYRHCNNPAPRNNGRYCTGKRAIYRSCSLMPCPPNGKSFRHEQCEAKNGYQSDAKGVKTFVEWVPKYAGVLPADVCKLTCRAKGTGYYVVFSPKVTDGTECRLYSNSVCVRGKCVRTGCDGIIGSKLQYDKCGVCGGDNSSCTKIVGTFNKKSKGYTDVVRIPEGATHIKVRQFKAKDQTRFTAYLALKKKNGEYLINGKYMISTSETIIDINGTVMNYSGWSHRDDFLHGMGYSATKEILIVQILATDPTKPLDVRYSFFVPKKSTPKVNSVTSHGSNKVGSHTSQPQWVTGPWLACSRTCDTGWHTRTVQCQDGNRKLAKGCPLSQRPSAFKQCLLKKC
# [9] = target: A disintegrin and metalloproteinase with thrombospondin motifs 4 (Homo sapiens, UniProt O75173); experiment: IC50 of hADAMTS4 at 1.0 µM in the Bayer in-house protease panel
# Chain of A disintegrin and metalloproteinase with thrombospondin motifs 4 (O75173 whole entry): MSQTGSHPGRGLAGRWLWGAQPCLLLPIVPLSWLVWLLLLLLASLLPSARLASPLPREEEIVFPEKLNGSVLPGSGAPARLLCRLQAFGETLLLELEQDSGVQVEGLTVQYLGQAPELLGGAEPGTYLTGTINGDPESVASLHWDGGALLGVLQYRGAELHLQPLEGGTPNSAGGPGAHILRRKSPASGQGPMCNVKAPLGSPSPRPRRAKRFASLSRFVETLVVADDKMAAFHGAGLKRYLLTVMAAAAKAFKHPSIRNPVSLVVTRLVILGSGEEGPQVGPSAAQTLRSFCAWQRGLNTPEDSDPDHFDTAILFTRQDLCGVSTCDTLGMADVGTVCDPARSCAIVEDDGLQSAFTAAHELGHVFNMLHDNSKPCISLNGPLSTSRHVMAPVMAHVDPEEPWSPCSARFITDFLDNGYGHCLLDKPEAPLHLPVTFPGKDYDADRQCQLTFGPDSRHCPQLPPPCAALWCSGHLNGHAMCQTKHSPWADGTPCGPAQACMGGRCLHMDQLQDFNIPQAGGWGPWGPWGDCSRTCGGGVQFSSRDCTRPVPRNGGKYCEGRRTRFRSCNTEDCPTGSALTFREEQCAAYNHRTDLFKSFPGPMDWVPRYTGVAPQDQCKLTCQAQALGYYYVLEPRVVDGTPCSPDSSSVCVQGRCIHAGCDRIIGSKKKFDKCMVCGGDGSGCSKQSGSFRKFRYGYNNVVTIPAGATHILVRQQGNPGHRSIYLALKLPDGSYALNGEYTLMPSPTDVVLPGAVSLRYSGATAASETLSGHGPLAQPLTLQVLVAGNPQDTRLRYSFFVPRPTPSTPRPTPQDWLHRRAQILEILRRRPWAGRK
# [10] = target: Insulin receptor (Homo sapiens) (UniProt P06213); experiment: Inhibition of Insulin at 10.0 µM in the Eurofins-Panlabs selectivity screen; settings: Rattus norvegicus; Compound concentration 10.0 uM
# [11] = target: Sodium-dependent dopamine transporter (Homo sapiens) (UniProt Q01959); experiment: Inhibition of Transporter, Dopamine (DAT) at 10.0 µM in the Eurofins-Panlabs selectivity screen; settings: Compound concentration 10.0 uM
# [12] = target: A disintegrin and metalloproteinase with thrombospondin motifs 12 (Homo sapiens, UniProt P58397); experiment: Biochemical enzymatic FRET assay (hADAMTS12) ( FRET substrate, HiLyteFluor-488 DELSSMVLELRGLRT-K(QXL520)-E-NH2 (custom synthesis by Anaspec) was used.)
# [13] = target: Alpha-2A adrenergic receptor (Homo sapiens) (UniProt P08913); experiment: Inhibition of Adrenergic alpha2A at 10.0 µM in the Eurofins-Panlabs selectivity screen; settings: Compound concentration 10.0 uM
# [14] = target: Muscarinic acetylcholine receptor M3 (Homo sapiens) (UniProt P20309); experiment: Inhibition of Muscarinic M3 at 10.0 µM in the Eurofins-Panlabs selectivity screen; settings: Compound concentration 10.0 uM
# Chain of Muscarinic acetylcholine receptor M3 (Homo sapiens) (P20309 whole entry, looked up): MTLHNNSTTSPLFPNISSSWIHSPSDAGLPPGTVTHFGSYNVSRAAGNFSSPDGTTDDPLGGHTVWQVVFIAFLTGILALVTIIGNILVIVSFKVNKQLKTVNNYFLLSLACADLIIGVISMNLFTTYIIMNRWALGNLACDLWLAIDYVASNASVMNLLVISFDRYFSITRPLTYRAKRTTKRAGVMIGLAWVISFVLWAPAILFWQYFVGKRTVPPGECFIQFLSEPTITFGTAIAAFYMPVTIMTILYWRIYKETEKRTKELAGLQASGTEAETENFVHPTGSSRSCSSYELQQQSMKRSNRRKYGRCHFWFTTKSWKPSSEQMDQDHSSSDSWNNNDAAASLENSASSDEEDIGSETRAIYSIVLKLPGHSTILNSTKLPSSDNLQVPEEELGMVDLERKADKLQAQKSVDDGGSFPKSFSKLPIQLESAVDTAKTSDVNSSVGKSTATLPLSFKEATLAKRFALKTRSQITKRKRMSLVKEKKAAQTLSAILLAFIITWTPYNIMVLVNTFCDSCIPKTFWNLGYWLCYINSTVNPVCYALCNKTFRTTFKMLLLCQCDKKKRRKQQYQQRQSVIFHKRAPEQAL
# [15] = target: Cathepsin B (Homo sapiens, UniProt P07858); experiment: IC50 of Cathepsin B at 1.0 µM in the Bayer in-house protease panel
# [16] = target: Angiotensin-converting enzyme (Homo sapiens) (UniProt P12821); experiment: Inhibition of Peptidase, Angiotensin Converting Enzyme at 10.0 µM in the Eurofins-Panlabs selectivity screen; settings: Oryctolagus cuniculus; Compound concentration 10.0 uM
# [17] = target: Disintegrin and metalloproteinase domain-containing protein 17 (Homo sapiens, UniProt P78536); experiment: IC50 of hADAM17 at 1.0 µM in the Bayer in-house protease panel
# [18] = target: GABA transporter (Rattus norvegicus) (UniProt P31647+P23978+P31646+P48056); experiment: Inhibition of Transporter, GABA at 10.0 µM in the Eurofins-Panlabs selectivity screen; type: protein assay; settings: Compound concentration 10.0 uM
# [19] = target: 5-hydroxytryptamine receptor 1A (Homo sapiens) (UniProt P08908); experiment: Inhibition of Serotonin (5-Hydroxytryptamine) 5-HT1A at 10.0 µM in the Eurofins-Panlabs selectivity screen; settings: Compound concentration 10.0 uM
# Chain of 5-hydroxytryptamine receptor 1A (Homo sapiens) (P08908 whole entry): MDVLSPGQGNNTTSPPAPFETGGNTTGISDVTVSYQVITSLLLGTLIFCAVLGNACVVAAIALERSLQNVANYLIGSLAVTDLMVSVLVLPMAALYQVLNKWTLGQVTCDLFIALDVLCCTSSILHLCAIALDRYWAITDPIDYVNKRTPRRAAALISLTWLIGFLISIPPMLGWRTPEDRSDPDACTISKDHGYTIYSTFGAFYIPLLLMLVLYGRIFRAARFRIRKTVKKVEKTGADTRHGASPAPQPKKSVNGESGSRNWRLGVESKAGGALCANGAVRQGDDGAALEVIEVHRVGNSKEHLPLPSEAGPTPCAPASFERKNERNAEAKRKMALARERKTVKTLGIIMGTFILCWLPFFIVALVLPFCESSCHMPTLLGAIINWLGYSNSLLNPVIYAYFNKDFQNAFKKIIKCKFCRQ
# [20] = target: T1, Glutamate NMDA receptor (Rattus norvegicus) (UniProt P35439+Q00959+Q00960+Q00961+Q62645+Q8VHN2+Q9R1M7); experiment: Inhibition of Glutamate, NMDA, Agonism at 10.0 µM in the Eurofins-Panlabs selectivity screen; type: protein-complex assay; settings: Compound concentration 10.0 uM
# [21] = target: Glutamate receptor ionotropic, kainate (Rattus norvegicus) (UniProt P22756+Q01812+P42260+P42264+Q63273); experiment: Inhibition of Glutamate, Kainate at 10.0 µM in the Eurofins-Panlabs selectivity screen; type: protein-complex assay; settings: Compound concentration 10.0 uM
# [22] = target: A disintegrin and metalloproteinase with thrombospondin motifs 7 (Homo sapiens, UniProt Q9UKP4); experiment: Biochemical enzymatic FRET assay (hADAMTS7) ( FRET substrate, HiLyteFluor-488 DELSSMVLELRGLRT-K(QXL520)-E-NH2 (custom synthesis by Anaspec) was used.)
# [23] = target: D(2) dopamine receptor (Homo sapiens) (UniProt P14416); experiment: Inhibition of Dopamine D2S at 10.0 µM in the Eurofins-Panlabs selectivity screen; settings: Compound concentration 10.0 uM
# Chain of D(2) dopamine receptor (Homo sapiens) (P14416 whole entry): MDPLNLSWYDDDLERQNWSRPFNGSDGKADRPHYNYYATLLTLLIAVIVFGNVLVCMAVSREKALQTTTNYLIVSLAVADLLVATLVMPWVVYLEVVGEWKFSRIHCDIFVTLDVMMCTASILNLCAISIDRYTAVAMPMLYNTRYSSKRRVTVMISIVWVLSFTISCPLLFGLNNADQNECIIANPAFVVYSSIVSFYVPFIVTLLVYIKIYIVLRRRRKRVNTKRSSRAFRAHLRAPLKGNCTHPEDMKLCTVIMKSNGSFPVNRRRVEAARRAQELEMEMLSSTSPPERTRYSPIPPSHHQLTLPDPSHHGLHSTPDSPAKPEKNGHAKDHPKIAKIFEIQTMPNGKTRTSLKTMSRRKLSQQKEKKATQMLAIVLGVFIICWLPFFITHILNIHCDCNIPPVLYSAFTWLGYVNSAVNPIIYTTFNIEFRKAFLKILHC
# [24] = target: Estrogen receptor (Homo sapiens) (UniProt P03372); experiment: Inhibition of Estrogen ERalpha at 10.0 µM in the Eurofins-Panlabs selectivity screen; settings: Compound concentration 10.0 uM
# [25] = target: Cannabinoid receptor 1 (Homo sapiens) (UniProt P21554); experiment: Inhibition of Cannabinoid CB1 at 10.0 µM in the Eurofins-Panlabs selectivity screen; settings: Compound concentration 10.0 uM
# [26] = target: Beta-2 adrenergic receptor (Homo sapiens) (UniProt P07550); experiment: Inhibition of Adrenergic beta2 at 10.0 µM in the Eurofins-Panlabs selectivity screen; settings: Compound concentration 10.0 uM
# [27] = target: D(1A) dopamine receptor (Homo sapiens) (UniProt P21728); experiment: Inhibition of Dopamine D1 at 10.0 µM in the Eurofins-Panlabs selectivity screen; settings: Compound concentration 10.0 uM
# Chain of D(1A) dopamine receptor (Homo sapiens) (P21728 whole entry): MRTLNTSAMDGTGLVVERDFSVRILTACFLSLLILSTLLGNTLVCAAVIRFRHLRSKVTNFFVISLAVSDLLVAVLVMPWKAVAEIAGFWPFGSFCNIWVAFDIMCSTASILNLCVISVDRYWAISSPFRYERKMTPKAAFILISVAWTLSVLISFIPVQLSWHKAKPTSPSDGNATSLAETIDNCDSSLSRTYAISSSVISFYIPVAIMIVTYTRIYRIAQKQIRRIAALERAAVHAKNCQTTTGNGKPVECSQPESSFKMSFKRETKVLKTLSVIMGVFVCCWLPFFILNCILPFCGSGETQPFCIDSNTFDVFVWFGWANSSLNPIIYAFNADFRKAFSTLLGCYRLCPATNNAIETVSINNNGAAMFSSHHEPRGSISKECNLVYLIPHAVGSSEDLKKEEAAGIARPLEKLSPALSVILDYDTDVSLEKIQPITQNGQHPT
# [28] = target: Sodium/potassium-transporting ATPase (Sus scrofa) (UniProt P05027+P05024+D2WKD8+D2WKD7+F1ST41); experiment: Inhibition of ATPase, Na+/K+, Heart, Pig at 10.0 µM in the Eurofins-Panlabs selectivity screen; type: protein-complex assay; settings: Compound concentration 10.0 uM
# [29] = target: T1, Glutamate NMDA receptor (Rattus norvegicus); experiment: Inhibition of Glutamate, NMDA, Glycine at 10.0 µM in the Eurofins-Panlabs selectivity screen; type: protein-complex assay; settings: Compound concentration 10.0 uM
# [30] = target: D(2) dopamine receptor (Homo sapiens) (UniProt P14416); experiment: Inhibition of Dopamine D2L at 10.0 µM in the Eurofins-Panlabs selectivity screen; settings: Compound concentration 10.0 uM
# [31] = target: Cannabinoid receptor 2 (Homo sapiens) (UniProt P34972); experiment: Inhibition of Cannabinoid CB2 at 10.0 µM in the Eurofins-Panlabs selectivity screen; settings: Compound concentration 10.0 uM
# [32] = target: 5-hydroxytryptamine receptor 2B (Homo sapiens) (UniProt P41595); experiment: Inhibition of Serotonin (5-Hydroxytryptamine) 5-HT2B at 10.0 µM in the Eurofins-Panlabs selectivity screen; settings: Compound concentration 10.0 uM
# [33] = target: Androgen receptor (Homo sapiens) (UniProt P10275); experiment: Inhibition of Androgen (Testosterone) at 10.0 µM in the Eurofins-Panlabs selectivity screen; settings: Compound concentration 10.0 uM
# [34] = target: cGMP-specific 3',5'-cyclic phosphodiesterase (Homo sapiens) (UniProt O76074); experiment: Inhibition of Phosphodiesterase PDE5 at 10.0 µM in the Eurofins-Panlabs selectivity screen; settings: Compound concentration 10.0 uM
# [35] = target: Beta-1 adrenergic receptor (Homo sapiens) (UniProt P08588); experiment: Inhibition of Adrenergic beta1 at 10.0 µM in the Eurofins-Panlabs selectivity screen; settings: Compound concentration 10.0 uM
# Chain of Prostaglandin G/H synthase 2 (Homo sapiens) (P35354 whole entry): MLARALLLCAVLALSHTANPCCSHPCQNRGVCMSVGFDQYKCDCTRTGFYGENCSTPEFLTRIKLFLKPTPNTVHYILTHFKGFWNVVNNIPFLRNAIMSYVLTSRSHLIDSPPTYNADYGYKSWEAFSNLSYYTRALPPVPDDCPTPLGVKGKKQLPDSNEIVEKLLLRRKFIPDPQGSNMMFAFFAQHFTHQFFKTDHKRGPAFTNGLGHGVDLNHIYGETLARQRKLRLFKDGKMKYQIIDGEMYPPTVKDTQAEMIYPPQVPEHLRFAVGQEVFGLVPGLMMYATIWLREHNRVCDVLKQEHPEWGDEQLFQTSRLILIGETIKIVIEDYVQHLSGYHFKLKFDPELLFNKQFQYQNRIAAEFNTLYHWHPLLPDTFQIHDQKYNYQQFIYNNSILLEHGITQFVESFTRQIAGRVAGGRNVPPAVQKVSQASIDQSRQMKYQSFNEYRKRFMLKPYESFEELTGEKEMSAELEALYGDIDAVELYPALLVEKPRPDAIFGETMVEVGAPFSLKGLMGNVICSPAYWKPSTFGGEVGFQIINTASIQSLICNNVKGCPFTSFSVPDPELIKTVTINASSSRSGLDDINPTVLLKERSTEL
structure (smiles),measurement,setting,value
Cn1nccc1[C@]1(CNC(=O)c2ccc(F)c(F)c2-c2ccc(C(F)(F)F)cc2)NC(=O)NC1=O,inhibition,[1],11%
same,inhibition at 10 µM,[2],10%
same,inhibition,[3],1%
same,inhibition,[4],3%
same,inhibition,[5],-3%
same,inhibition,[6],10%
same,pIC50,[7],< 4.00
same,pIC50,[8],5.00
same,pIC50,[9],5.17
same,inhibition,[10],-8%
same,inhibition,[11],7%
same,IC50,[12],0.03 µM (active)
same,inhibition,[13],-3%
same,inhibition,[14],9%
same,pIC50,[15],< 4.00
same,inhibition,[16],3%
same,pIC50,[17],5.24
same,inhibition,[18],7%
same,inhibition,[19],-3%
same,inhibition,[20],1%
same,inhibition,[21],12%
same,IC50,[22],0.006 µM (active)
same,inhibition,[23],0%
same,inhibition,[24],13%
same,inhibition,[25],-3%
same,inhibition,[26],-9%
same,inhibition,[27],-1%
same,inhibition,[28],-5%
same,inhibition,[29],-4%
same,inhibition,[30],2%
same,inhibition,[31],-1%
same,inhibition,[32],-1%
same,inhibition,[33],3%
same,inhibition,[34],-5%
same,inhibition,[35],-8%
